Consider four compounds from US7514571B2, “Bicyclo derivative” (Kyorin Pharmaceutical Co., Ltd., priority 2004, dated 2009).

In general, IC50 refers to the midpoint of a concentration-inhibition curve. A high value points to a need for much substance. As a reminder, the inhibition is the drop in the measured response relative to a control, in per cent. Low readings indicate a response near the control, high ones a response far below the control.

Structures are written as SMILES.

Experiment [1] concerns the target T1, plasma dipeptidylpeptidase IV (Homo sapiens, UniProt P27487).
T1 construct: 20 μL of plasma diluted 8-fold with saline in a well of a 96-well flat bottom plate; from tissue
Description: In vitro dipeptidylpeptidase IV inhibition (H-Gly-Pro-AMC hydrolysis by plasma, fluorometry). It counts as biochemical. Conditions: plasma diluted 8-fold, H-Gly-Pro-AMC.HBr substrate, room temperature, 20 minutes. As for the experimental part:
The concentration of free 7-amino-4-methyl-coumarin (AMC) generated by hydrolysis of H-Gly-Pro-AMC.HBr substrate by plasma dipeptidylpeptidase IV was determined by fluorometry.
A 20 μL of buffer (25 mmol/L hepes, 140 mmol/L sodium chloride, 1% bovine serum albumin, 80 mmol/L magnesium chloride hexahydrate, pH 7.4) containing each compound was added to 20 μL of plasma diluted 8-fold with saline in a well of a 96-well flat bottom plate. The plate was left at room temperature for 5 minutes and 10 μL of 0.1 mmol/L H-Gly-Pro-AMC.HBr solution was added to each well to initiate the reaction. […] Using a fluorescent plate reader, the free AMC concentration was determined by exciting the samples at 355 nm and measuring the fluorescence intensity at 460 nm.

The target in experiment [2] is T2, plasma dipeptidylpeptidase IV (Mus musculus, UniProt P28843).
T2 construct: The blood samples were centrifuged at 6000 rpm for 2 minutes to separate plasma; from tissue; host or cells: plasma of male ICR mice (Charles River Laboratories Japan)
T2 sequence (P28843 37-760 limits assumed): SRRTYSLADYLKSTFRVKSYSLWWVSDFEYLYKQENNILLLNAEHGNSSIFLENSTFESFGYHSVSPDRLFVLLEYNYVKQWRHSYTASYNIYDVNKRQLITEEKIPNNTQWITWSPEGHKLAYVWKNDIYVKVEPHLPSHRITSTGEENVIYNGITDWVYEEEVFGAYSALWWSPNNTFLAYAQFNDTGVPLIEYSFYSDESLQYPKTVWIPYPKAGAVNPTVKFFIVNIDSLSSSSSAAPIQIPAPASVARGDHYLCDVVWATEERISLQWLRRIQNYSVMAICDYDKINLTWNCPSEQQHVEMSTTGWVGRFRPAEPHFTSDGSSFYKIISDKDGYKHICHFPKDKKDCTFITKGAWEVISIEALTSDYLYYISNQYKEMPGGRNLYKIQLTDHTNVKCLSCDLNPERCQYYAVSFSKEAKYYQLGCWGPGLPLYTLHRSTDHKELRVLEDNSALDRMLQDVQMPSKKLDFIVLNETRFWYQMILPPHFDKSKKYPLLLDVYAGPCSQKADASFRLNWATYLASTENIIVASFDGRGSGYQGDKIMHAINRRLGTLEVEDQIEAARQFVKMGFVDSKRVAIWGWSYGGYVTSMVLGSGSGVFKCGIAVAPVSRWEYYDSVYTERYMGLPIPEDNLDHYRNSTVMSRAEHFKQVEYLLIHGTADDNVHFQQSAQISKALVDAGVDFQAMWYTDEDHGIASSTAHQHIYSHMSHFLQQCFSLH
Description: Inhibition of plasma dipeptidylpeptidase IV activity in mice by oral administration. It counts as in vivo. Conditions: male ICR mice, 0.1 mg/mL suspension at 10 mL/kg, 30 minutes after administration. The protocol: Each compound was suspended in 0.3% sodium carboxymethylcellulose to a concentration of 0.1 mg/mL. The preparation was orally administered to 8 weeks old male ICR mice (Charles River Laboratories Japan) at a dose of 10 mL/kg. Using an EDTA 2K-treated capillary tube, blood samples were collected from the tail vein before administration and 30 minutes after administration. The blood samples were centrifuged at 6000 rpm for 2 minutes to separate plasma. […] The inhibition was determined from the decrease in the enzymatic activity from the initial activity (% inhibition={(activity before administration−activity after administration)/(activity before administration)}×100).

T1 sequence (P27487 39-766 limits assumed): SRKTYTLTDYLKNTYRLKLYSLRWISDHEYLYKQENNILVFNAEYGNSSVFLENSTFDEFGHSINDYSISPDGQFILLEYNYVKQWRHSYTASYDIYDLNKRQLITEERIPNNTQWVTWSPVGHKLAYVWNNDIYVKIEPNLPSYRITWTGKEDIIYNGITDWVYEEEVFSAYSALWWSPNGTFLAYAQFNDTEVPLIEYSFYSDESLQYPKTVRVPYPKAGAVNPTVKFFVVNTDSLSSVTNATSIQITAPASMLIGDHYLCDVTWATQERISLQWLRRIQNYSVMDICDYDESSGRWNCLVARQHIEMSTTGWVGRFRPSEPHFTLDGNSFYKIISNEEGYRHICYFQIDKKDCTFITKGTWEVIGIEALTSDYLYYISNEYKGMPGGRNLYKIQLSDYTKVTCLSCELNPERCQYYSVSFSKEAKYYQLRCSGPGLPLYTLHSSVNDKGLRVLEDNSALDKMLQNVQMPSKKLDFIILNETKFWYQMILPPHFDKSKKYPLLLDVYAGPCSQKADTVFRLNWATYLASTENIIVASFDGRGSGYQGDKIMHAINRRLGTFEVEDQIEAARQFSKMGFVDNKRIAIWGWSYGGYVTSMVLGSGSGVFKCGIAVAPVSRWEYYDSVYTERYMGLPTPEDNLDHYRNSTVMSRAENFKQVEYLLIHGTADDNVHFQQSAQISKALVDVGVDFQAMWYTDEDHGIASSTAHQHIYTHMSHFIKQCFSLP

In the case of `N#C[C@@H]1C[C@H](F)CN1C(=O)CNC12CCC(C(=O)O)(CC1)CC2` [Example 1, (2S,4S)-1-[[N-(4-carboxybicyclo[2,2,2]oct-1-yl)amino]acetyl]-4-fluoropyrrolidine-2-carbonitrile], half-maximal inhibition in experiment [1] (IC50) was put at 3.1 nM.

As for `CC12CCC(NCC(=O)N3C[C@@H](F)C[C@H]3C#N)(CC1)CC2` [Example 3, (2S,4S)-1-[[N-(4-methylbicyclo[2,2,2]oct-1-yl)amino]acetyl]-4-fluoropyrrolidine-2-carbonitrile], the half-inhibitory concentration (IC50) in experiment [1] amounted to 0.25 nM. For the same compound, in experiment [2], the inhibition at 1 mg/kg was 100%.

In experiment [1], `N#C[C@@H]1C[C@H](F)CN1C(=O)CNC12CCC(CO)(CC1)CC2` [Example 5, (2S,4S)-1-[[N-(4-hydroxymethylbicyclo[2,2,2]oct-1-yl)amino]acetyl]-4-fluoropyrrolidine-2-carbonitrile] showed an IC50 of 1.1 nM.

`N#C[C@@H]1C[C@H](F)CN1C(=O)CNC12CCC(F)(CC1)CC2` [Example 7, (2S,4S)-1-[[N-(4-fluorobicyclo[2,2,2]oct-1-yl)amino]acetyl]-4-fluoropyrrolidine-2-carbonitrile] came in with an inhibition at 1 mg/kg in experiment [2] of 91%.
